The results in this text go back to BindingDB's records for doi:10.1021/bi0200514 (Merck Research Laboratories, 2002).

Several values for one entry are separate records, joined by “and”; a condition that tells them apart may be missing. Equal entries are not always repeated. Positions of bridges follow the written chain, without caps; N, C: chain ends. Non-standard residues stand in square brackets, D forms with d. Residues, ends and D or L forms follow the SMILES beside them. *: point of attachment. Pentanoyl(5-guanidino) = NC(N)=NCCCCC(=O)*; Abu = CC[C@H](N)C(=O)O; Aoc = NCCCCCCCC(=O)O; Ava = NCCCCC(=O)O

Assay [1] has as its target Melanin-concentrating hormone receptor 1 (Homo sapiens, UniProt Q99705).
The target of assay [2] is Melanin-concentrating hormone receptor 2 (Homo sapiens, UniProt Q969V1).
Sequence of Melanin-concentrating hormone receptor 2 (Q969V1 whole entry): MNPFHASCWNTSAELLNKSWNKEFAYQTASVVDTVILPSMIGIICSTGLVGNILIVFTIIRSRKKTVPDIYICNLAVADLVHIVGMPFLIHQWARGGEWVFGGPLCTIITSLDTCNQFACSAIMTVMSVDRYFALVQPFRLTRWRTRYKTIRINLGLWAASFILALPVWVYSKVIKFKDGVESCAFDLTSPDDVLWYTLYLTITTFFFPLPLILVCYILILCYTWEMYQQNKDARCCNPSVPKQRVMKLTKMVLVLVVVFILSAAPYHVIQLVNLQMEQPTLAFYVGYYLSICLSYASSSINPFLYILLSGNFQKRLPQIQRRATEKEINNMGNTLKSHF

Sequence of Melanin-concentrating hormone receptor 1 (Q99705 as listed by the source): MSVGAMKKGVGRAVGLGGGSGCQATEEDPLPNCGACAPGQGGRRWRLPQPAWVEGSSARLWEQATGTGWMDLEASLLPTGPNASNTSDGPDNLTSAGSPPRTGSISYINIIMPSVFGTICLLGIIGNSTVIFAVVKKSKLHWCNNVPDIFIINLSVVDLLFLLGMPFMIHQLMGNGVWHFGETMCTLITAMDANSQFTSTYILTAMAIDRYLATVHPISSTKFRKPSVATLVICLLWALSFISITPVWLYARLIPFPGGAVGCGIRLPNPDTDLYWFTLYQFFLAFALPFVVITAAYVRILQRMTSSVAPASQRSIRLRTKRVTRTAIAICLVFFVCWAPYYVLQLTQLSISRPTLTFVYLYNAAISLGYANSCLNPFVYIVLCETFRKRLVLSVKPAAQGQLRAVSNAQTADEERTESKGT

In general, Ki refers to the equilibrium dissociation constant of an inhibitor or competing ligand from its target. A higher Ki goes with weaker binding. In the case of `CSCC[C@@H]1NC(=O)[C@@H](NC(=O)CCCCN=C(N)N)CSSC[C@@H](C(N)=O)NC(=O)CCCCNC(=O)[C@H](Cc2ccc(O)cc2)NC(=O)[C@H](C(C)C)NC(=O)[C@H](CCCN=C(N)N)NC(=O)CCCCNC1=O` [Gva6,Ava9,10,Ava14,15] ({Pentanoyl(5-guanidino)}-CM[Ava]RVY[Ava]C-NH2; disulfide 1-8), the figures for the inhibition constant (Ki) in assay [1] and in assay [2] were 45 nM and 40 nM, respectively.

In the case of `CSCC[C@@H]1NC(=O)[C@@H](NC(=O)[C@@H](CCCN=C(N)N)NC(C)=O)CSSC[C@@H](C(N)=O)NC(=O)CCCCNC(=O)[C@H](Cc2ccc(O)cc2)NC(=O)[C@H](C(C)C)NC(=O)[C@H](CCCN=C(N)N)NC(=O)CNC(=O)[C@H](CC(C)C)NC1=O` [D-Arg6,Ava14,15], the Ki in assay [1] amounted to 11.3 nM; in assay [2], 65 nM.

Consider `CC(C)C[C@@H]1NC(=O)[C@H](C)NC(=O)[C@@H](NC(=O)CCCCN=C(N)N)CSSC[C@@H](C(N)=O)NC(=O)CCCCNC(=O)[C@H](Cc2ccc(O)cc2)NC(=O)[C@H](C(C)C)NC(=O)[C@H](CCCN=C(N)N)NC(=O)CNC1=O` [Gva6,Ala8,Ava14,15] ({Pentanoyl(5-guanidino)}-CALGRVY[Ava]C-NH2; disulfide 1-9), for which the Ki is 83 nM in assay [1] and 33 nM in assay [2].

As to `CSCC[C@@H]1NC(=O)[C@@H](NC(=O)CCCCN=C(N)N)CSSC[C@@H](C(N)=O)NC(=O)[C@@H]2CCCN2C(=O)[C@H](CCCN=C(N)N)NC(=O)[C@H](Cc2ccc(O)cc2)NC(=O)[C@H](C(C)C)NC(=O)[C@H](CCCN=C(N)N)NC(=O)CCCCNC1=O` [Gva6,Ava9,10], the Ki in assay [1] turned out to be 5 nM; in assay [2], 48 nM.

With `CCCC[C@@H]1NC(=O)[C@@H](NC(=O)CCCCN=C(N)N)CSSC[C@@H](C(N)=O)NC(=O)CCCCNC(=O)[C@H](Cc2ccc(O)cc2)NC(=O)[C@H](C(C)C)NC(=O)[C@H](CCCN=C(N)N)NC(=O)CNC(=O)[C@H](CC(C)C)NC1=O` [Gva6,Nle8,Ava14,15], the Ki in assay [1] was found to be 4.7 nM; in assay [2], 70 nM.

Take `CSCC[C@@H]1NC(=O)[C@@H](NC(=O)CCCCN=C(N)N)CSSC[C@@H](C(N)=O)NC(=O)CCCCNC(=O)[C@H](Cc2ccc(O)cc2)NC(=O)[C@H](C(C)C)NC(=O)[C@H](CCCN=C(N)N)NC(=O)CNC1=O` [Gva6,desLeu9,Ava14,15] ({Pentanoyl(5-guanidino)}-CMGRVY[Ava]C-NH2; disulfide 1-8): the Ki was 1350 nM in assay [1] and 20 nM in assay [2].

`CSCC[C@@H]1NC(=O)[C@@H](NC(=O)[C@H](CCCNC(=N)N)NC(C)=O)CSSC[C@@H](C(N)=O)NC(=O)[C@@H]2CCCN2C(=O)[C@H](CCCNC(=N)N)NC(=O)[C@H](Cc2ccc(O)cc2)NC(=O)[C@H](C(C)C)NC(=O)[C@H](CCCNC(=N)N)NC(=O)CNC(=O)[C@H](CC(C)C)NC1=O` [hAc-MCH(6-16)-NH2]: the Ki in assay [1] was determined as 0.16 nM; in assay [2] it was 2.7 nM.

`CSCC[C@@H]1NC(=O)[C@@H](NC(=O)CCCN=C(N)N)CSSC[C@@H](C(N)=O)NC(=O)CCCCNC(=O)[C@H](Cc2ccc(O)cc2)NC(=O)[C@H](C(C)C)NC(=O)[C@H](CCCN=C(N)N)NC(=O)CNC(=O)[C@H](CC(C)C)NC1=O` [Gbu6,Ava14,15]: the inhibitory constant (Ki) was determined as 7.9 nM in assay [1] and 45 nM in assay [2].

Turning to `CSCC[C@@H]1NC(=O)[C@@H](N)CSSC[C@@H](C(N)=O)NC(=O)CCCCNC(=O)[C@H](Cc2ccc(O)cc2)NC(=O)[C@H](C(C)C)NC(=O)[C@H](CCCN=C(N)N)NC(=O)CNC(=O)[C@H](CC(C)C)NC1=O` [des(Ac-Arg6),Ava14,15], the Ki was 300 nM and 190 nM in assay [1]; 77 nM and 48 nM in assay [2].

As for `CSCC[C@@H]1NC(=O)[C@@H](NC(=O)[C@@H](CCCN=C(N)N)NC(C)=O)CSSC[C@@H](C(N)=O)NC(=O)CCCCNC(=O)[C@H](Cc2ccc(O)cc2)NC(=O)[C@H](C(C)C)NC(=O)[C@H](CCCN=C(N)N)NC(=O)CCCCNC1=O` [D-Arg6,Ava9,10,Ava14,15], the Ki in assay [1] came to 69 nM; in assay [2], 45 nM.

`CSCC[C@@H]1NC(=O)[C@@H](NC(=O)[C@H](CCCN=C(N)N)NC(C)=O)CSSC[C@@H](C(N)=O)NC(=O)CCCCNC(=O)[C@H](Cc2ccc(O)cc2)NC(=O)[C@H](C(C)C)NC(=O)[C@H](CCCN=C(N)N)NC(=O)CNC(=O)[C@H](CC(C)C)NC1=O` [Ava14,15]: the figures for the Ki in assay [1] and in assay [2] were 1.8 nM and 50 nM, respectively.

`CC[C@@H]1NC(=O)[C@@H](NC(=O)CCCCN=C(N)N)CSSC[C@@H](C(N)=O)NC(=O)CCCCNC(=O)[C@H](Cc2ccc(O)cc2)NC(=O)[C@H](C(C)C)NC(=O)[C@H](CCCN=C(N)N)NC(=O)CNC(=O)[C@H](CC(C)C)NC1=O` [Gva6,alphaAbu8,Ava14,15] ({Pentanoyl(5-guanidino)}-C[Abu]LGRVY[Ava]C-NH2; disulfide 1-9): the inhibitory constant (Ki) came out at 320 nM in assay [1] and 43 nM in assay [2].

Regarding `CSCC[C@@H]1NC(=O)[C@@H](NC(=O)CCCCN=C(N)N)CSSC[C@@H](C(=O)O)NC(=O)CCCCNC(=O)[C@H](Cc2ccc(O)cc2)NC(=O)[C@H](C(C)C)NC(=O)[C@H](CCCN=C(N)N)NC(=O)CNC(=O)[C@H](CC(C)C)NC1=O` [Gva6,Ava14,15, OH], the inhibitory constant (Ki) in assay [1] is 66 nM; in assay [2], 38 nM.

With `CSCC[C@@H]1NC(=O)[C@@H](NC(=O)CCCCN=C(N)N)CSSC[C@@H](C(N)=O)NC(=O)CCCNC(=O)[C@H](Cc2ccc(O)cc2)NC(=O)[C@H](C(C)C)NC(=O)[C@H](CCCN=C(N)N)NC(=O)CNC(=O)[C@H](CC(C)C)NC1=O` [Gva6,gammaAbu14,15], the Ki in assay [1] stood at 24 nM; in assay [2], 48 nM.

`CC(=O)N[C@@H](CCCN=C(N)N)C(=O)N[C@H]1CSSC[C@@H](C(N)=O)NC(=O)[C@@H]2CCCN2C(=O)[C@H](CCCN=C(N)N)NC(=O)[C@H](Cc2ccc(O)cc2)NC(=O)[C@H](C(C)C)NC(=O)[C@H](CCCN=C(N)N)NC(=O)CCCCCCCNC1=O` [Aoct8,9,10] (Ac-RC[Aoc]RVYRPC-NH2; disulfide 2-9): the Ki in assay [1] turned out to be 4800 nM; in assay [2], 63 nM.

`CSCC[C@@H]1NC(=O)[C@@H](NC(=O)[C@H](CCN=C(N)N)NC(C)=O)CSSC[C@@H](C(N)=O)NC(=O)CCCCNC(=O)[C@H](Cc2ccc(O)cc2)NC(=O)[C@H](C(C)C)NC(=O)[C@H](CCCN=C(N)N)NC(=O)CNC(=O)[C@H](CC(C)C)NC1=O` [Gpr6,Ava14,15]: the Ki in assay [1] and in assay [2] was 43 nM in each case.

In the case of `CSCC[C@@H]1NC(=O)[C@@H](NC(=O)CCCCN=C(N)N)CSSC[C@@H](C(N)=O)NC(=O)[C@H]2CC[C@H](CC2)NC(=O)[C@H](Cc2ccc(O)cc2)NC(=O)[C@H](C(C)C)NC(=O)[C@H](CCCN=C(N)N)NC(=O)CNC(=O)[C@H](CC(C)C)NC1=O` [Gva6,cisAcx14,15], the Ki in assay [1] came out at 10 nM; in assay [2], 3100 nM.

Turning to `CSCC[C@@H]1NC(=O)[C@H](NC(=O)CCCCN=C(N)N)CSSC[C@@H](C(N)=O)NC(=O)CCCCNC(=O)[C@H](Cc2ccc(O)cc2)NC(=O)[C@H](C(C)C)NC(=O)[C@H](CCCN=C(N)N)NC(=O)CNC(=O)[C@H](CC(C)C)NC1=O` [Gva6,D-Cys7,Ava14,15], the Ki was 120 nM in assay [1] and 25 nM in assay [2].

`CC(=O)N[C@@H](CCCN=C(N)N)C(=O)N[C@H]1CSSC[C@@H](C(N)=O)NC(=O)CCCCNC(=O)[C@H](Cc2ccc(O)cc2)NC(=O)[C@H](C(C)C)NC(=O)[C@H](CCCN=C(N)N)NC(=O)CNC(=O)[C@H](CC(C)C)NC(=O)[C@H](C)NC1=O` [Ala8,Ava14,15] (Ac-RCALGRVY[Ava]C-NH2; disulfide 2-10) returned a Ki in assay [2] of 38 nM. This counts as double-digit nanomolar.

For the molecule `CSCC[C@@H]1NC(=O)[C@@H](NC(=O)CCCCN=C(N)N)CSSC[C@@H](C(N)=O)NC(=O)CCCCNC(=O)[C@H](Cc2ccc(O)cc2)NC(=O)[C@H](C)NC(=O)[C@H](CCCN=C(N)N)NC(=O)CNC(=O)[C@H](CC(C)C)NC1=O` [Gva6,Ala12,Ava14,15] ({Pentanoyl(5-guanidino)}-CMLGRAY[Ava]C-NH2; disulfide 1-9), the Ki in assay [1] came out at 25 nM; in assay [2] it was 35 nM.

With `CSCC[C@@H]1NC(=O)[C@H](NC(=O)[C@H](CCCN=C(N)N)NC(C)=O)CSSC[C@@H](C(N)=O)NC(=O)CCCCNC(=O)[C@H](Cc2ccc(O)cc2)NC(=O)[C@H](C(C)C)NC(=O)[C@H](CCCN=C(N)N)NC(=O)CNC(=O)[C@H](CC(C)C)NC1=O` [D-Cys7,Ava14,15], the Ki in assay [1] stood at 340 nM; in assay [2] it was 20 nM.

On to `CSCC[C@@H]1NC(=O)[C@@H](NC(=O)[C@H](CCCNC(=N)N)NC(=O)[C@H](CC(C)C)NC(=O)[C@H](CCSC)NC(=O)[C@H](CC(=O)O)NC(=O)[C@H](Cc2ccccc2)NC(=O)[C@@H](N)CC(=O)O)CSSC[C@@H](C(=O)N[C@@H](Cc2c[nH]c3ccccc23)C(=O)N[C@@H](CCC(N)=O)C(=O)N[C@H](C(=O)O)C(C)C)NC(=O)[C@@H]2CCCN2C(=O)[C@H](CCCNC(=N)N)NC(=O)[C@H](Cc2ccc(O)cc2)NC(=O)[C@H](C(C)C)NC(=O)[C@H](CCCNC(=N)N)NC(=O)CNC(=O)[C@H](CC(C)C)NC1=O` [hMCH], for which the Ki in assay [2] turned out to be 2.9 nM.
